Here are results for 14 compounds from US4737517A, “Coumarin derivatives, pharmaceutical compositions containing the same, and the use thereof in the treatment of cancer” (FIDIA, S.p.A., priority 1983, dated 1988).

Counter-ions that a name gives are not always drawn.

A word on the inhibition: it is how much of the control response was suppressed.

The experiment deals with platelet hyper-aggregation induced by ADP. The experiment in a line: Inhibition of ADP-induced platelet hyperaggregation in vitro (Born's method, aggregometer ELVI 840). The experiment is classed as cell-based, New Zealand rabbits. The conditions noted are these: Oryctolagus cuniculus, 0.5 h, ADP 20 μg/ml, 100 γ/ml of active compound, rabbit PRP, incubated 30 minutes at 37° C, read-out: Inhibition of platelet hyper-aggregation induced by ADP. As for the experimental part: Two separate centrifugations are effected (at 1000 rpm and at 6000 rpm), thus obtaining PRP ([…]) and PPP ([…]); the first is diluted with the second in order to obtain a platelet concentration of 300,000 per mm^3 (the count is effected in a Buerker apparatus). The compounds with a platelet antiaggregating activity of the present invention are added at the desired concentrations and incubated for 30 minutes at 37° C. with the aggregating agents. […] The various compounds represented by the numbers in the first column are identifiable by the numbers in the second column which refer to the examples described below in this specification.
As for `C=CCc1c(O)c(CN2CCOCC2)cc2c(C)cc(=O)oc12` [Compound 25, 4-methyl-6-(4-morpholinylmethyl)-7-hydroxy-8-allylcumarin hydrochlorode], the inhibition at 100 µg/mL was found to be 19%. As for `C=CCc1c(OCC(=O)OCC)c(CN2CCOCC2)cc2c(C)cc(=O)oc12` [Compound 27, Ethyl ester of the acid [4-methyl-6-(4-morpholinylmethyl)-8-allylcumarin-7-yl]oxyacetic], the figure is 32%. As to `C=CCOc1c(CN2CCOCC2)cc2c(C)cc(=O)oc2c1CC=C` [Compound 28, 4-methyl-6-(4-morpholinylmethyl)-7-allyloxy-8-allylcumarin hydrochloride], the inhibition at 100 µg/mL was found to be 54%.

Take `C=CCc1c(OC(C)(C)C(=O)OCC)c(CN2CCOCC2)cc2c(C)cc(=O)oc12` [Compound 29, Ethyl ester of the acid 2-[4-methyl-6-(4-morpholinylmethyl)-8-allylcumarin-7-yl]oxy-2-methylpropionic hydrochloride]: the inhibition at 100 µg/mL is 19%. In the case of `C=CCc1c(O)c(CN2CCOCC2)cc2c(-c3ccccc3)cc(=O)oc12` [Compound 44, 4-phenyl-6-(4-morpholinylmethyl)-7-hydroxy-8-allylcumarin hydrochloride], the inhibition at 100 µg/mL was 20%. As for `C=CCc1c(O)c(CN2CCN(CCO)CC2)cc2c(-c3ccccc3)cc(=O)oc12` [Compound 49, 4-phenyl-6-[[4-(2-hydroxyethyl)-1-piperazinyl]methyl]-7-hydroxy-8-allylcumarin dihydrochloride], the figure is 25%; as for `C=CCOc1c(CN2CCOCC2)cc2c(-c3ccccc3)cc(=O)oc2c1CC=C` [Compound 50, 4-phenyl-6-(4-morpholinylmethyl)-7-allyloxy-8-allylcumarin hydrochloride], 25%; as for `C=CCc1c(OCC(=O)OCC)c(CN2CCOCC2)cc2c(-c3ccccc3)cc(=O)oc12` [Compound 51, Ethyl ester of [4-phenyl-6-(4-morpholinylmethyl)-8-allylcumarin-7-yl]oxy acetic acid hydrochloride], 37%.

In the case of `C=CCc1c(OC(C)(C)C(=O)OCC)c(CN2CCOCC2)cc2c(-c3ccccc3)cc(=O)oc12` [Compound 52, Ethyl ester of 2-[4-phenyl-6-(4-morpholinylmethyl)-8-allylcumarin-7-yl]oxy-2-methylpropionic acid hydrochloride], the inhibition at 100 µg/mL was determined as 22%. As for `CCN(CC)CCc1c(C)c2cc(CN3CCOCC3)c(O)c(Cl)c2oc1=O` [Compound 58, 3-(2-diethylaminoethyl)-4-methyl-6-(4-morpholinylmethyl)-7-hydroxy-8-chlorocumarin dihydrochloride], the figure is 25%. Regarding `CCOC(=O)COc1c(CN2CCOCC2)cc2c(C)c(CCN(CC)CC)c(=O)oc2c1Cl` [Compound 62, Ethyl ester of [3-(2-diethylaminoethyl)-4-methyl-6-(4-morpholinylmethyl)-8-chlorocumarin-7-yl]oxyacetic acid dihydrochloride], the inhibition at 100 µg/mL was determined as 23%. Take `C=CCOc1c(CN2CCOCC2)cc2c(C)c(CCN(CC)CC)c(=O)oc2c1Cl` [Compound 67, 3-(2-diethylaminoethyl)-4-methyl-6-(4-morpholinylmethyl)-7-allyloxy-8-chlorocumarin hydrochloride]: the inhibition at 100 µg/mL turned out to be 18%.

Regarding `CCOC(=O)C(C)(C)Oc1c(CN2CCOCC2)cc2c(C)c(CCN(CC)CC)c(=O)oc2c1Cl` [Compound 68, Ethyl ester of 2-[3-(2-diethylaminoethyl)-4-methyl-6-(4-morpholinylmethyl)-8-chlorocumarin-7-yl]oxy-2-methylpropionic acid dihydrochloride], the inhibition at 100 µg/mL is 41%.

In the case of `Cc1cc(=O)oc2c(Cl)c(O)c(CN3CCOCC3)cc12` [Compound 69, 4-methyl-6-(4-morpholinylmethyl)-7-hydroxy-8-chlorocumarin hydrochloride], the inhibition at 100 µg/mL was found to be 29%.
